Series [1] in a line: log P by HPLC on reversed-phase column (C 18), EEC Directive 79/831 Annex V.A8. It is filed as physicochemical. The note with it: HPLC C 18, 40° C., 0.1% aqueous formic acid and acetonitrile, gradient 10% to 90% acetonitrile. The method, then:
In table 1, the log P values were determined in accordance with EEC Directive 79/831 Annex V.A8 by HPLC (High Performance Liquid Chromatography) on a reversed-phase column (C 18), using the method described below:
Temperature: 40° C.; Mobile phases: 0.1% aqueous formic acid and acetonitrile; linear gradient from 10% acetonitrile to 90% acetonitrile.
Calibration was carried out using unbranched alkan-2-ones (comprising 3 to 16 carbon atoms) with known log P values (determination of the log P values by the retention times using linear interpolation between two successive alkanones). lambda-max-values were determined using UV-spectra from 200 nm to 400 nm and the peak values of the chromatographic signals.
In table 2, M+H (Apcl+) and log P are defined as for table 1.

The subject of series [2] is Sphaerotheca fuliginea. Description: In vivo test on Sphaerotheca fuliginea (cucurbits powdery mildew). The settings on record: 500 ppm of active ingredient; gherkin plants sprayed 24 hours before contamination; grading 12 days after contamination vs control plants. The method, then:
The active ingredients tested are prepared by homogenization in a mixture of acetone/tween/DMSO and then diluted with water to obtain the desired active material concentration.
Gherkin plants (“Vert petit de Paris” variety), sown in starter cups on a 50/50 peat soil-pozzolana substrate and grown at 24° C., are treated at the Z11 cotyledon stage by spraying with the active ingredient prepared as described above. Plants, used as controls, are treated with the mixture of acetone/tween/DMSO/water not containing the active material.
After 24 hours, the plants are contaminated by spraying the cotyledons with an aqueous suspension of Sphaerotheca fuliginea spores (100 000 spores per mL). The spores are collected from infected plants. The contaminated gherkin plants are incubated at about 20° C. and at 70-80% relative humidity.
(§1) Grading (% of efficacy) is carried out 12 days after the contamination, in comparison with the control plants.
Under these conditions, good (at least 70%) to total protection is observed at a dose of 500 ppm of active ingredient with the following compounds from table A: […]

Series [3] deals with Puccinia recondita. Nature of the series: In vivo test on Puccinia recondita (brown rust). The settings on record: 500 ppm of active ingredient; wheat plants sprayed 24 hours before contamination; grading 12 days after contamination vs control plants. On the procedure:
(§2) The active ingredients tested are prepared by homogenization in a mixture of acetone/tween/DMSO, and then diluted with water to obtain the desired active material concentration.
(§3) Wheat plants (“Scipion” variety), sown in starter cups on a 50/50 peat soil pozzolana substrate and grown at 22° C., are treated at the 1 leaf stage (10 cm height) by spraying with the active ingredient prepared as described above. Plants, used as controls, are treated with the mixture of acetone/tween/DMSO/water not containing the active material.
After 24 hours, the plants are contaminated by spraying the leaves with an aqueous suspension of Puccinia recondita spores (100 000 spores per mL). The spores are collected from an infected plant and are suspended in water containing 2.5 mL/L of Tween 80 at 10%. The contaminated wheat plants are incubated for 24 hours at 20° C. and at 100% relative humidity, and then for 10 days at 20° C. and at 70-80% relative humidity.
as §1
Under these conditions, good (at least 70%) to excellent (at least 90%) protection is observed at a dose of 500 ppm of active ingredient with the following compounds from table C: […]

For series [4], the system named is Uromyces appendiculatus. Description: In vivo preventive test on Uromyces appendiculatus (bean rust). The settings on record: 500 ppm of active ingredient; bean plants sprayed 24 hours before contamination; grading 11 days after contamination vs control plants. On the procedure: as §2
Bean plants (“Saxa” variety), sown in starter cups on a 50/50 peat soil pozzolana substrate and grown at 24° C., are treated at the 2 leaf stage (9 cm height) by spraying with the active ingredient prepared as described above. Plants, used as controls, are treated with the mixture of acetone/tween/DMSO/water not containing the active material.
After 24 hours, the plants are contaminated by spraying the leaves with an aqueous suspension of Uromyces appendiculatus spores (150 000 spores per mL). The spores are collected from infected plants and are suspended in water containing 2.5 mL/L of Tween 80 at 10%. The contaminated bean plants are incubated for 24 hours at 20° C. and at 100% relative humidity, and then for 10 days at 20° C. and at 70-80% relative humidity.
Grading (% of efficacy) is carried out 11 days after the contamination, in comparison with the control plants.
Under these conditions, good (at least 70%) to total protection is observed at a dose of 500 ppm of active ingredient with the following compounds from table G: […]

Series [5] concerns Septoria tritici. Description: In vivo preventive test on Septoria tritici (wheat). The note with it: 500 ppm of active ingredient; wheat plants sprayed 24 hours before contamination; grading 24 days after contamination vs control plants. On the procedure:
as §2, §3
After 24 hours, the plants are contaminated by spraying the leaves with an aqueous suspension of cryopreserved Septoria tritici spores (500 000 spores per mL). The contaminated wheat plants are incubated for 72 hours at 18° C. and at 100% relative humidity, and then for 21 days at 90% relative humidity.
Grading (% of efficacy) is carried out 24 days after the contamination, in comparison with the control plants.
Under these conditions, good (at least 70%) to total protection is observed at a dose of 500 ppm of active ingredient with the following compounds from table F: […]

Setting [6] is: Table 1, compounds of formula (I).
The mark [7] stands for this setting: Table 2, compounds of formula (II).

Usually logP stands for a log measure of how a compound divides between an organic and an aqueous phase. `Cn1nc(C(F)F)c(C(=O)N(Cc2ccccc2[Si](C)(C)c2ccccc2)C2CC2)c1Cl` [I.5] registered a logP in series [1] (setting [6]) of 4.88. For the same compound, the Efficacy is 79% in series [2] and 83% in series [3]. For the compound `Cc1nc(C(F)F)c(C(=O)N(Cc2ccccc2[Si](C)(C)c2ccc(-c3ccccc3)cc2)C2CC2)s1` [I.17], the logP in series [1] (setting [6]) is given as 5.93.

`Cc1cc(C(=O)N(Cc2ccccc2[Si](C)(C)c2ccc(Oc3ccccc3)cc2)C2CC2)c(C)o1` [I.21]: the logP in series [1] (setting [6]) was 6.33. `Cn1cc(C(=O)N(Cc2ccccc2[Si](C)(C)c2cccc3ccccc23)C2CC2)c(C(F)F)n1` [I.26] gave a logP in series [1] (setting [6]) of 4.83. In the case of `Cn1nc(C(F)F)c(C(=O)N(Cc2ccccc2[Si](C)(C)c2cccs2)C2CC2)c1Cl` [I.32], the logP in series [1] (setting [6]) amounted to 4.72. The compound also registered an Efficacy in series [4] of 71%.

With `Cn1cc(C(=O)N(Cc2ccccc2[Si](C)(C)c2ccc(-c3ccccc3)cc2)C2CC2)c(C(F)F)c1` [I.18], the logP in series [1] (setting [6]) is listed as 5.68. As for `Cn1nc(C(F)F)c(C(=O)N(Cc2ccccc2[Si](C)(C)c2ccc(Cl)cc2)C2CC2)c1F` [I.6], in series [1] (setting [6]), the log partition coefficient (logP) came to 5.19. Also, the results for the Efficacy in series [2], in series [3] and in series [4] were 100%, 94% and 100%, respectively. `COc1ccc([Si](C)(C)c2ccccc2CN(C(=O)c2c(C(F)F)nn(C)c2Cl)C2CC2)cn1` [I.39] registered a logP in series [1] (setting [6]) of 4.25. On to `C[Si](C)(c1cccs1)c1ccccc1CN(C(=O)c1ccsc1I)C1CC1` [I.34], for which, in series [1] (setting [6]), the log partition coefficient (logP) is 5.28. With `Cc1cc(C(=O)N(Cc2ccccc2[Si](C)(C)c2ccc(Cl)cc2)C2CC2)c(C)o1` [I.9], in series [1] (setting [6]), the logP was 5.78. On the same count and under the same terms, then `COc1ccc([Si](C)(C)c2ccccc2CN(C(=O)c2c(C(F)F)nn(C)c2F)C2CC2)cn1` [I.38], with 4.13. Take `C[Si](C)(c1ccc(-c2ccccc2)cc1)c1ccccc1CN(C(=O)c1ccsc1I)C1CC1` [I.16]: the logP in series [1] (setting [6]) worked out at 6.39. As to `CC1CC1NCc1ccccc1[Si](C)(C)c1ccccc1` (stereo not shown) [II.7], the logP in series [1] (setting [7]) was found to be 2.70. In the case of `Cc1cc(C(=O)N(Cc2ccccc2[Si](C)(C)c2ccc(-c3ccccc3)cc2)C2CC2)c(C)o1` [I.15], the log partition coefficient (logP) in series [1] (setting [6]) turned out to be 6.39. As usually defined, the chromatographic logP is a lipophilicity value derived from retention on a column. Low readings indicate lower lipophilicity, high ones higher lipophilicity. `C[Si](C)(c1cccs1)c1ccccc1CNC1CC1` [II.6, N-{2-[dimethyl(2-thienyl)silyl]benzyl}cyclopropanamine] had a chromatographic logP in series [1] (setting [7]) of 1.76. `Cc1cc(C(=O)N(Cc2ccccc2[Si](C)(C)c2cccc3ccccc23)C2CC2)c(C)o1` [I.27] yielded a logP in series [1] (setting [6]) of 5.87. Compound `C[Si](C)(c1ccc(-c2ccccc2)cc1)c1ccccc1CNC1CC1` [II.3, N-{2-[biphenyl-4-yl(dimethyl)silyl]benzyl}cyclopropanamine] gave a chromatographic logP in series [1] (setting [7]) of 2.39. In series [1] (setting [6]), `Cc1nc(C(F)F)c(C(=O)N(Cc2ccccc2[Si](C)(C)c2ccc(Cl)cc2)C2CC2)s1` [I.12] gave a lipophilicity (logP) of 5.31. On the same count and under the same terms, then `Cc1nc(C(F)F)c(C(=O)N(Cc2ccccc2[Si](C)(C)c2cccs2)C2CC2)s1` [I.36], with 4.74.

In series [1] (setting [6]), `Cn1nc(C(F)F)c(C(=O)N(Cc2ccccc2[Si](C)(C)c2cccs2)C2CC2)c1F` [I.33] displayed a logP of 4.61. Also, the Efficacy in series [2], in series [5] and in series [4] was 100% each time.

The compound `Cn1cc(C(=O)N(Cc2ccccc2[Si](C)(C)c2cccs2)C2CC2)c(C(F)F)c1` [I.37] had a logP in series [1] (setting [6]) of 4.59. The compound `C[Si](C)(c1ccc(Oc2ccccc2)cc1)c1ccccc1CN(C(=O)c1ccsc1I)C1CC1` [I.22] registered a logP in series [1] (setting [6]) of 6.36. In series [1] (setting [7]), `C[Si](C)(c1ccccc1)c1ccccc1CNC1CC1` [II.1, N-{2-[dimethyl(phenyl)silyl]benzyl}cyclopropanamine] gave a chromatographic logP of 1.95.

Regarding `C[Si](C)(c1ccc(Cl)cc1)c1ccccc1CNC1CC1` [II.2, N-{2-[(4-chlorophenyl)(dimethyl)silyl]benzyl}cyclopropanamine], the chromatographic logP in series [1] (setting [7]) was determined as 2.07. In series [1] (setting [6]), `Cn1cc(C(=O)N(Cc2ccccc2[Si](C)(C)c2ccc(Cl)cc2)C2CC2)c(C(F)F)c1` [I.10] had a logP of 5.19. As for `Cn1cc(C(=O)N(Cc2ccccc2[Si](C)(C)c2ccc(-c3ccccc3)cc2)C2CC2)c(C(F)F)n1` [I.14], in series [1] (setting [6]), the logP is 5.36. This logP and that of the compound before are within 0.2 log units of each other. Consider `Cn1cc(C(=O)N(Cc2ccccc2[Si](C)(C)c2ccc(Cl)cc2)C2CC2)c(C(F)F)n1` [I.7], for which the logP in series [1] (setting [6]) turned out to be 4.81. Also, the values for the Efficacy in series [2], in series [3] and in series [4] were 70%, 78% and 86%, respectively. `Cc1nc(C(F)F)c(C(=O)N(Cc2ccccc2[Si](C)(C)c2cccc3ccccc23)C2CC2)s1` [I.30] displayed a logP in series [1] (setting [6]) of 5.31. Same read-out and setting: then `Cn1nc(C(F)F)c(C(=O)N(Cc2ccccc2[Si](C)(C)c2ccc(-c3ccccc3)cc2)C2CC2)c1F` [I.13], with 5.71.

Turning to `CCc1nn(C)c(F)c1C(=O)N(Cc1ccccc1[Si](C)(C)c1ccccc1)C1CC1` [I.2], the logP in series [1] (setting [6]) is given as 4.81. In addition, the Efficacy in series [2] worked out at 100%; in series [3], 83%. Take `C[Si](C)(c1ccc(Oc2ccccc2)cc1)c1ccccc1CNC1CC1` [II.4, N-{2-[dimethyl(4-phenoxyphenyl)silyl]benzyl}cyclopropanamine]: in series [1] (setting [7]), the chromatographic logP turned out to be 2.42.

`Cn1cc(C(=O)N(Cc2ccccc2[Si](C)(C)c2ccc(Oc3ccccc3)cc2)C2CC2)c(C(F)F)c1` [I.23]: the logP in series [1] (setting [6]) amounted to 5.62. With `C[Si](C)(c1ccccc1CNC1CC1)c1cccc2ccccc12` [II.5, N-{2-[dimethyl(1-naphthyl)silyl]benzyl}cyclopropanamine], in series [1] (setting [7]), the chromatographic logP was 2.11. For `C[Si](C)(c1ccc(Cl)cc1)c1ccccc1CN(C(=O)c1ccsc1I)C1CC1` [I.11], the lipophilicity (logP) in series [1] (setting [6]) was found to be 5.81. Still for that read-out and setting: then `Cc1nc(C(F)F)c(C(=O)N(Cc2ccccc2[Si](C)(C)c2ccc(Oc3ccccc3)cc2)C2CC2)s1` [I.24], with 5.81; and `Cn1cc(C(=O)N(Cc2ccccc2[Si](C)(C)c2cccc3ccccc23)C2CC2)c(C(F)F)c1` [I.28], with 5.19; and `Cc1cc(C(=O)N(Cc2ccccc2[Si](C)(C)c2cccs2)C2CC2)c(C)o1` [I.35], with 5.19. With `COc1ccc([Si](C)(C)c2ccccc2CNC2CC2)cn1` [II.8, N-{2-[(6-methoxypyridin-3-yl)(dimethyl)silyl]benzyl}cyclopropanamine], the chromatographic logP in series [1] (setting [7]) stood at 1.86.

For the origin of these results see patent publication US20150080337A1, “N-CYCLOALKYL-N-[(TRISUBSTITUTEDSILYLPHENYL)METHYLENE]-(THIO)CARBOXAMIDE DERIVATIVES” (BAYER CROPSCIENCE, priority 2012, published 2015).
